Assay results reported in PubChem BioAssay (NCI).
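All cell lines were grown in 96-well plates and treated with compound for 48 hours. Abbreviation: GI50, concentration required for 50% inhibition of growth. At the TGI there is no net growth.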

Assays:
Assay in all cases: growth of human tumour cells (NCI), 48 h
[1] = tested on: HL-60(TB) leukemia
[2] = tested on: SK-MEL-5 melanoma
[3] = tested on: MDA-MB-435
[4] = tested on: DU-145 prostate
[5] = tested on: KM12 colon
[6] = tested on: OVCAR-4 ovarian
[7] = tested on: PC-3 prostate
[8] = tested on: UACC-62 melanoma
[9] = tested on: SF-539 CNS
[10] = tested on: ACHN renal
[11] = tested on: CCRF-CEM leukemia
[12] = tested on: SF-295 CNS
[13] = tested on: RPMI-8226 leukemia
[14] = tested on: MDA-MB-231 breast
[15] = tested on: OVCAR-8 ovarian
[16] = tested on: SF-268 CNS
[17] = tested on: OVCAR-5 ovarian
[18] = tested on: NCI/ADR-RES ovarian
[19] = tested on: SNB-75 CNS
[20] = tested on: SK-MEL-2 melanoma
[21] = tested on: SW-620 colon
[22] = tested on: K-562 leukemia
[23] = tested on: HT29 colon
[24] = tested on: MALME-3M melanoma
[25] = tested on: LOX IMVI melanoma
[26] = tested on: HCT-15 colon
[27] = tested on: NCI-H226 lung
[28] = tested on: SK-OV-3 ovarian
[29] = tested on: HCT-116 colon
[30] = tested on: NCI-H23 lung
[31] = tested on: IGROV1 ovarian
[32] = tested on: HOP-62 NSCLC
[33] = tested on: RXF 393 renal
[34] = tested on: U251 CNS
[35] = tested on: OVCAR-3 ovarian
[36] = tested on: NCI-H460 lung
[37] = tested on: HS 578T breast
[38] = tested on: SN12C renal
[39] = tested on: MDA-MB-468 breast
[40] = tested on: SK-MEL-28 melanoma
[41] = tested on: T-47D breast
[42] = tested on: EKVX NSCLC
[43] = tested on: BT-549 breast
[44] = tested on: NCI-H522 lung
[45] = tested on: MOLT-4 leukemia
[46] = tested on: MCF7 breast
[47] = tested on: HCC-2998 colon
[48] = tested on: 786-0 renal
[49] = tested on: SR leukemia
[50] = tested on: M14 melanoma
[51] = tested on: UO-31 renal
[52] = tested on: CAKI-1 renal
[53] = tested on: A498 renal
[54] = tested on: SNB-19 CNS
[55] = tested on: TK-10 renal
[56] = tested on: UACC-257 melanoma
[57] = tested on: HOP-92 NSCLC
[58] = tested on: COLO 205 colon
[59] = tested on: A549 NSCLC

SMILES: C=C(C)[C@@H]1CC[C@]2(C(=O)OC)CC[C@]3(C)[C@H](CC[C@@H]4[C@@]5(C)CC[C@H](N)C(C)(C)[C@@H]5CC[C@]43C)[C@@H]12
- GI50 [1]: 1.44 µM
- TGI [1]: 3.83 µM
- GI50 [2]: 1.93 µM
- TGI [2]: 3.79 µM
- GI50 [3]: 1.62 µM
- TGI [3]: 3.1 µM
- GI50 [4]: 1.85 µM
- TGI [4]: 3.37 µM
- GI50 [5]: 1.77 µM
- TGI [5]: 3.31 µM
- GI50 [6]: 1.83 µM
- TGI [6]: 3.58 µM
- GI50 [7]: 1.89 µM
- TGI [7]: 4.07 µM
- GI50 [8]: 1.77 µM
- TGI [8]: 3.24 µM
- GI50 [9]: 1.63 µM
- TGI [9]: 3 µM
- GI50 [10]: 1.7 µM
- TGI [10]: 3.07 µM
- GI50 [11]: 1.8 µM
- TGI [11]: 4.68 µM
- GI50 [12]: 1.7 µM
- TGI [12]: 3.13 µM
- GI50 [13]: 2.72 µM
- TGI [13]: 8.81 µM
- GI50 [14]: 1.78 µM
- TGI [14]: 3.19 µM
- GI50 [15]: 2.04 µM
- TGI [15]: 4.4 µM
- GI50 [16]: 1.81 µM
- TGI [16]: 3.49 µM
- GI50 [17]: 1.69 µM
- TGI [17]: 3.13 µM
- GI50 [18]: 1.85 µM
- TGI [18]: 3.51 µM
- GI50 [19]: 1.48 µM
- TGI [19]: 2.92 µM
- GI50 [20]: 2.04 µM
- TGI [20]: 4.3 µM
- GI50 [21]: 1.14 µM
- TGI [21]: 2.49 µM
- GI50 [22]: 0.711 µM
- TGI [22]: 12.7 µM
- GI50 [23]: 1.83 µM
- TGI [23]: 3.51 µM
- GI50 [24]: 1.71 µM
- TGI [24]: 3.09 µM
- GI50 [25]: 1.33 µM
- TGI [25]: 2.64 µM
- GI50 [26]: 1.64 µM
- TGI [26]: 3.05 µM
- GI50 [27]: 1.94 µM
- TGI [27]: 3.77 µM
- GI50 [28]: 2.22 µM
- TGI [28]: 5.45 µM
- GI50 [29]: 1.48 µM
- TGI [29]: 3.26 µM
- GI50 [30]: 1.78 µM
- TGI [30]: 3.31 µM
- GI50 [31]: 1.74 µM
- TGI [31]: 3.18 µM
- GI50 [32]: 1.83 µM
- TGI [32]: 3.55 µM
- GI50 [33]: 1.58 µM
- TGI [33]: 3.07 µM
- GI50 [34]: 1.75 µM
- TGI [34]: 3.27 µM
- GI50 [35]: 1.49 µM
- TGI [35]: 2.9 µM
- GI50 [36]: 1.43 µM
- TGI [36]: 2.86 µM
- GI50 [37]: 2 µM
- TGI [37]: 4.29 µM
- GI50 [38]: 1.75 µM
- TGI [38]: 3.27 µM
- GI50 [39]: 1.77 µM
- TGI [39]: 3.26 µM
- GI50 [40]: 1.68 µM
- TGI [40]: 3.08 µM
- GI50 [41]: 1.88 µM
- TGI [41]: 3.82 µM
- GI50 [42]: 1.83 µM
- TGI [42]: 3.32 µM
- GI50 [43]: 2.47 µM
- TGI [43]: 5.59 µM
- GI50 [44]: 1.75 µM
- TGI [44]: 3.39 µM
- GI50 [45]: 2.5 µM
- TGI [45]: 6.02 µM
- GI50 [46]: 1.05 µM
- TGI [46]: 2.34 µM
- GI50 [47]: 1.65 µM
- TGI [47]: 3.07 µM
- GI50 [48]: 1.7 µM
- TGI [48]: 3.33 µM
- GI50 [49]: 0.379 µM
- TGI [49]: 3.05 µM
- GI50 [50]: 1.99 µM
- TGI [50]: 4.28 µM
- GI50 [51]: 1.51 µM
- TGI [51]: 2.84 µM
- GI50 [52]: 1.62 µM
- TGI [52]: 3.02 µM
- GI50 [53]: 1.45 µM
- TGI [53]: 2.78 µM
- GI50 [54]: 1.72 µM
- TGI [54]: 3.24 µM
- GI50 [55]: 1.89 µM
- TGI [55]: 3.47 µM
- GI50 [56]: 1.89 µM
- TGI [56]: 4.02 µM
- GI50 [57]: 1.58 µM
- TGI [57]: 3.13 µM

SMILES: N#CC1=C(c2cccs2)Nc2c(c(-c3ccccc3)nn2-c2ccccc2)C12C(=O)Nc1ccc(Br)cc12 (centres undefined)
- GI50 [1]: 8.84 µM
- TGI [1]: 26.8 µM
- GI50 [2]: 16.6 µM
- TGI [2]: 30.5 µM
- GI50 [58]: 16 µM
- TGI [58]: 29.9 µM
- GI50 [3]: 17 µM
- TGI [3]: 33.7 µM
- GI50 [4]: 20.7 µM
- TGI [4]: 46.6 µM
- GI50 [5]: 7.67 µM
- TGI [5]: 20.5 µM
- GI50 [6]: 14.2 µM
- TGI [6]: 34.1 µM
- GI50 [7]: 6.37 µM
- TGI [7]: 22 µM
- GI50 [8]: 11.4 µM
- TGI [8]: 23.6 µM
- GI50 [9]: 15.2 µM
- TGI [9]: 28.5 µM
- GI50 [59]: 10.2 µM
- TGI [59]: 23 µM
- GI50 [10]: 11.9 µM
- TGI [10]: 24.8 µM
- GI50 [11]: 7.51 µM
- TGI [11]: 26.7 µM
- GI50 [12]: 12.5 µM
- TGI [12]: 25.6 µM
- GI50 [13]: 10.2 µM
- TGI [13]: 32.9 µM
- GI50 [15]: 15.6 µM
- TGI [15]: 31 µM
- GI50 [16]: 8.58 µM
- TGI [16]: 37.8 µM
- GI50 [17]: 16.5 µM
- TGI [17]: 33.1 µM
- GI50 [18]: 13.3 µM
- TGI [18]: 29.1 µM
- GI50 [21]: 11.1 µM
- TGI [21]: 26.5 µM
- GI50 [22]: 7.53 µM
- TGI [22]: 23.6 µM
- GI50 [23]: 15.2 µM
- TGI [23]: 29.1 µM
- GI50 [24]: 14.5 µM
- TGI [24]: 27.8 µM
- GI50 [25]: 12.4 µM
- TGI [25]: 24.9 µM
- GI50 [26]: 5.34 µM
- TGI [26]: 18.2 µM
- GI50 [27]: 15.4 µM
- TGI [27]: 31.2 µM
- GI50 [28]: 14.2 µM
- TGI [28]: 28.6 µM
- GI50 [29]: 12.1 µM
- TGI [29]: 24.7 µM
- GI50 [30]: 9.98 µM
- TGI [30]: 21.8 µM
- GI50 [31]: 14.2 µM
- TGI [31]: 29.8 µM
- GI50 [32]: 15.4 µM
- TGI [32]: 29.6 µM
- GI50 [33]: 10.2 µM
- TGI [33]: 22.2 µM
- GI50 [34]: 5.64 µM
- TGI [34]: 18.4 µM
- GI50 [35]: 15 µM
- TGI [35]: 29.4 µM
- GI50 [36]: 11.2 µM
- TGI [36]: 24.6 µM
- GI50 [37]: 12.7 µM
- TGI [37]: 40.1 µM
- GI50 [38]: 13.7 µM
- TGI [38]: 27.9 µM
- GI50 [39]: 12.9 µM
- TGI [39]: 27 µM
- GI50 [40]: 15.1 µM
- TGI [40]: 28.4 µM
- GI50 [41]: 17.7 µM
- TGI [41]: 45 µM
- GI50 [42]: 11.1 µM
- TGI [42]: 27.4 µM
- GI50 [43]: 5.22 µM
- TGI [43]: 18.1 µM
- GI50 [44]: 4.52 µM
- TGI [44]: 17.1 µM
- GI50 [45]: 7.92 µM
- TGI [45]: 24.1 µM
- GI50 [46]: 13.6 µM
- TGI [46]: 28.3 µM
- GI50 [47]: 13.9 µM
- TGI [47]: 27 µM
- GI50 [48]: 15.7 µM
- TGI [48]: 30.5 µM
- GI50 [49]: 7.93 µM
- TGI [49]: 27.1 µM
- GI50 [50]: 14.4 µM
- TGI [50]: 27.7 µM
- GI50 [52]: 16.2 µM
- TGI [52]: 37.5 µM
- GI50 [53]: 16.3 µM
- TGI [53]: 30.7 µM
- GI50 [54]: 5.23 µM
- TGI [54]: 27.9 µM
- GI50 [55]: 12.9 µM
- TGI [55]: 36.7 µM
- GI50 [56]: 15.6 µM
- TGI [56]: 30.9 µM
- GI50 [57]: 3.4 µM
- TGI [57]: 15.4 µM
